Read-outs that look alike come from different tables or passages of the source. No end group written: not given here.
How the values were obtained:
[1] = test system: Listeria monocytogenes CMCC54004; assay type: cell-based
Description: (§1) The antimicrobial activity of each peptide against food-pathogens was characterized by the minimum inhibitory concentration (MIC) ([Ma et al., 2013]). A logarithmic growth-phase culture of bacteria (1 × 10^6 CFU/mL) was mixed with peptide solutions (final concentration ranging from 0 μM to 256 μM) in 96-well plates. After the 96-well plates were incubated for 24 h at 37°C, optical dispersion (OD) was measured using a microplate reader (Bio-Rad, ıHercules, CA, United States) at 630 nm. […] The broth with bacteria cells was used as the negative control, and un-inoculated broth was used as a positive control. The tests were performed in triplicate using three replicates for each experiment.

[2] = test system: Bacillus cereus CMCC6303; assay type: cell-based
Description: as §1

[3] = test system: Salmonella enteric-subspenterica CMCC50071; settings: 1 × 10^6 CFU/mL, 24 h, 37°C, triplicate
Description: as §1

[4] = test system: Salmonella pullorum C79-13; assay type: cell-based; settings: 24 h
Description: as §1

[5] = test system: 12 typical food-pathogens; settings: over the 12 food-pathogens of Table 3
Description: as §1
The selectivity index (SI), calculated as the ratio of MHC to GM, was used a comparison parameter for the safety and efficacy of peptides.

[6] = test system: EA. hy 926 cells; test: Cytotoxicity (CCK-8); assay type: cell-based, human; settings: CCK-8, 24 h; for EA. hy 926 cell viability: peptide concentration 128 μM
Description: The cytotoxicity of the peptides was tested on the EA. hy 926 cell line by using the Cell Counting Kit-8 (CCK-8, Dojindo, Japan) as described in a previous study ([Sánchez-Gómez et al., 2015]). The EA. Hy 926 cells cultured in the logarithmic growth -phase was then diluted with PBS to a single cell suspension. A 100 μL cell suspension (2 × 10^5 cells) was added to 96-well plates and cultured in an incubator with a 5% CO2 atmosphere at 37°C. The cell culture medium was removed, and the two-fold serial dilutions of peptides prepared using DMEM with 5% FBS were added to the 96-well plates. After 24 h, 100 μL DMEM with 10% CCK-8 was added to the 96-well plates and then cultured for 4 h. The absorbance was measured at 492 nm by using a microplate reader. DMEM served as a positive control and cells mixed with DMEM without peptides as a negative control. Melittin was employed as a control peptide.

[7] = test system: Salmonella typhimurium C77-31; assay type: cell-based; settings: murium C77-31, 24 h
Description: as §1

[8] = test system: Staphylococcus aureus ATCC25923; assay type: cell-based
Description: as §1

[9] = test system: Escherichia coli UB1005; assay type: cell-based; settings: UB1005, 24 h
Description: as §1

[10] = test system: Escherichia coli ATCC25922; assay type: cell-based; settings: for MIC, CaCl2 / MIC, Control / MIC, KCl / MIC, MgCl2 / MIC, NH4Cl / MIC, NaCl: ATCC25922, 24 h
Description: To evaluate the effect of different physiological conditions on the stability of peptides, we determined the salt stability, thermal stability, and enzymatic stability as described in a previous study ([Dong, 2013]; [Sun et al., 2018]). Escherichia coli ATCC25922 grown in the logarithmic phase (1 × 10^6 CFU/mL) was exposed to each peptide at different salt concentrations (150 mM NaCl, 4.5 mM KCl, 6 μM NH4Cl, 1 mM MgCl2, 8 μM ZnCl2, 2 mM CaCl2, and 4 μM FeCl3). The peptides were treated for 1 h at 100°C to test for thermal stability. The peptides were treated with trypsin, pepsin, papain and protease k at a concentration of 1 mg/mL for 1 h at 37°C to test for enzyme stability. The control group consisted of untreated peptides. The subsequent assay was consistent with the MIC assay.

[11] = test system: Salmonella typhimurium ATCC14028; assay type: cell-based
Description: as §1

[12] = test system: Staphylococcus aureus CMCC26074; assay type: cell-based
Description: as §1

[13] = test system: Cronobacter sakazakii ATCC29544; assay type: cell-based; settings: ATCC29544, 24 h
Description: as §1

[14] = test system: Salmonella enteric-subspenterica CMCC47020; settings: 1 × 10^6 CFU/mL, 24 h, 37°C, triplicate
Description: as §1

[15] = test system: Escherichia coli ATCC25922; assay type: cell-based; settings: ATCC25922, 24 h
Description: as §1

[16] = E. coli ATCC25922, peptides treated with trypsin 1 mg/mL, 1 h, 37°C

| Substance | MIC ([1]; CMCC54004, 24 h) [µM] | MIC ([2]; CMCC6303, 24 h) [µM] | MIC [3] [µM] | MIC [4] [µM] | GM (geometric mean of MICs) [5] [µM] | EA. hy 926 cell viability [6] [%] | MIC [7] [µM] | MIC [9] [µM] | MIC, Heat ([10]; ATCC25922, 1 h) [µM] | MIC, Papain ([10]; ATCC25922, 1 h) [µM] | MIC, Pepsin ([10]; ATCC25922, 1 h) [µM] | MIC, Proteinase k ([10]; ATCC25922, 1 h) [µM] | MIC, CaCl2 [10] [µM] | MIC, Control [10] [µM] | MIC, KCl [10] [µM] | MIC, MgCl2 [10] [µM] | MIC, NH4Cl [10] [µM] | MIC, NaCl [10] [µM] | MIC [13] [µM] | MIC [15] [µM] | also measured |
| --- | --- | --- | --- | --- | --- | --- | --- | --- | --- | --- | --- | --- | --- | --- | --- | --- | --- | --- | --- | --- | --- |
| RRWRIVVIRWRR-NH2 [R2W3W10R11] | 1 | 64 | 8 | 32 | 30.2 | 77 | 64 | 16 | 8 | 4 | 32 | 128 | 2 | 2 | 2 | 2 | 2 | 4 | 64 | 2 | MIC ([8]; ATCC25923, 24 h): 128 µM; MIC, Trypsin [10, 16]: >256 µM; MIC ([11]; ATCC14028, 24 h): 64 µM; MIC ([12]; CMCC26074, 24 h): 128 µM; MIC [14]: 256 µM |
| RWKRIVVIRKRR-NH2 [W2K3K10R11] |  |  |  | 256 | 170.0 | 83 | 256 | 256 | 16 | 4 | 16 | 8 | 4 | 4 | 4 | 4 | 4 | 8 | 256 | 4 | MIC ([1]; Listeria monocytogenes CMCC54004, 1 × 10^6 CFU/mL, 24 h, 37°C, triplicate): 128 µM; MIC ([2]; Bacillus cereus CMCC6303, 1 × 10^6 CFU/mL, 24 h, 37°C, triplicate): 128 µM; MIC ([8]; Staphylococcus aureus ATCC25923, 1 × 10^6 CFU/mL, 24 h, 37°C, triplicate): >256 µM; MIC, Trypsin [10, 16]: >256 µM; MIC ([11]; Salmonella typhimurium ATCC14028, 1 × 10^6 CFU/mL, 24 h, 37°C, triplicate): 128 µM; MIC ([12]; Staphylococcus aureus CMCC26074, 1 × 10^6 CFU/mL, 24 h, 37°C, triplicate): >256 µM |
| RWRRIVVIRVRR-NH2 [W2R3V10R11] | 2 | 64 | 8 | 32 | 24.0 | 80 | 32 | 16 | 4 | 2 | 32 | 8 | 8 | 2 | 2 | 4 | 2 | 4 | 16 | 2 | MIC ([8]; ATCC25923, 24 h): 256 µM; MIC, Trypsin ([10]; ATCC25922, 1 h): >256 µM; MIC ([11]; ATCC14028, 24 h): 32 µM; MIC ([12]; CMCC26074, 24 h): 64 µM; MIC [14]: 128 µM |
| melittin [reference compound] |  |  |  |  |  |  |  |  |  |  |  |  |  |  |  |  |  |  |  |  | Cytotoxicity ([6]; at 16 μM): 100% |

— paper PMC6848382, “Characterization of the Bioactivity and Mechanism of Bactenecin Derivatives Against Food-Pathogens” (Frontiers in Microbiology, 2019)
